Columns and labels:
MSC stem cells = details: 150 μM, 15 minutes, UV light (377 nm) 8 minutes, further 1 hour; λex 458 nm, λem 499-799 nm
Description: For these confocal microscopy experiments, the HeLa or MSC cells were prepared in the same way as for the epifluorescence microscopy experiments (see Example 1, Short incubation, UV light exposure #1 and #3). […] Complexes were excited with Argon laser at 458 nm and emission signal was collected from 499 nm to 799 nm. During this experiment, a 63× Plan-Apochromat objective was used (2× zoom).

[1] = tested on: MSC (Mesenchymal Stem Cells); details: 150 μM, 15 minutes, UV light (377 nm) 8 minutes, further 1 hour
Description: The MSC (Mesenchyml Stem Cells) cell line was obtained from University in Orleans, 13MTO Laboratory (Orleans, France). The as-received MSC cell line has been obtained from the bone marrow of rats. The MSC cell line was cultured in Minimum Essential Medium (MEM) supplemented with 10% heat-inactivated fetal bovine serum (FBS), 1% of L-glutamine (GlutaMAX) and 1% of streptomycin/penicillin antibiotics. The MSC were also seeded in a similar manner to the HeLa cells.
After 24 hours, the respective cell culture media was removed and the HeLa cells or MSC were incubated with the Yb^3+[Zn(II)MCpyzHA] complex according to one of the following procedures.
The MSC cells were incubated with a solution of 150 μM Yb^3+[Zn(II)MCpyzHA] complex in OPTI-MEM® media (supplemented with 2% of FBS at 37° C. in 5% CO2 atmosphere) for 15 minutes, illuminated with UV light (377 nm) for 8 minutes, and then were allowed to continue incubating for 1 hour.
Prior to epifluorescent imaging, the HeLa and the MSC cells were washed twice with OPTI-MEM® (room temperature) in order to remove any non-specifically bound Yb^3+[Zn(II)MCpyzHA] complex.

HeLa cells [2] = assay: Cytotoxicity test with Alamar blue; type: cell-based, Human; details: FIG. 6, text says 5 hours, figure legend 24 and 48 hours
Description: In order to determine if the LnZn16(pyz)16MC complexes (Ln^3+Zn(II)MCHAD are toxic for live cells, cytotoxicity tests with Alamar blue were performed.
Alamar blue is viability reagent which functions as a cell health indicator by using the reducing power of living cells to quantitatively measure the proliferation of different human and animal cell lines. This enables the cytotoxicity of different chemical complexes to be determined. The active ingredient of Alamar Blue is resazurin, which is non-toxic and cell permeable compound, and upon entering in the cells, it is reduced to highly fluorescent resorufin.
The cytotoxicity tests were performed with Alamar blue assay (Invitrogen, France). HeLa cells were seeded in 96-well plate at the density of 1*10^4 cells per well and cultured at 37° C. in 5% humidified CO2 atmosphere. After 24 hours of attachment, the cells were incubated with different concentrations of Yb^3+[Zn(II)MCpyzHA] in cell culture medium for 24 and 48 hours followed by incubation with Alamar blue (10% v/v) for 3 to 4 hours at 37° C. in 5% humidified CO2 atmosphere.
Fluorescence of Alamar blue was measured with plate reader (Victor 3V, Perkin Elmer, France), with excitation at 530 nm and emission at 590 nm, for cells incubated with Yb^3+[Zn(II)MCpyzHA] and for untreated cells (control).

HeLa cells [3] = assay: Raman spectroscopy of fixed HeLa cells; type: cell-based, Human; details: cells stained and fixed as in Example 1
Description: Raman spectroscopy maps were collected for living HeLa cells, HeLa cells that were fixed with paraformaldehyde (PFA), HeLa cells that were fixed with methanol (MeOH), and HeLa cells that were stained and fixed with Yb^3+[Zn(II)MCpyzHA] using the example method disclosed herein (as described in Example 1).
Cells were seeded in an 8-well Lab Tek Chamber coverglass, as previously described in Example 1. Cells were washed trice with OPTI-MEM® (room temperature) and incubated with 4% PFA solution in PBS (Phosphate Buffered Saline) for 30 minutes at room temperature. […]
To study the changes between the different samples, a background subtraction was applied and the signal was collected in the range of 0-4000 cm^−1 in different cellular structures, cytoplasm and nucleus, allowing to observe the variations of specific vibrations arising from the nucleic acids and proteins, in particular, the CH vibrational bands at 2800-3300 cm^−1 that reflect a distribution of proteins, lipids and carbohydrates in cells and often used to localize cellular organelles, as well as OH band in the range of 3100-3650 cm^−1. […] However, a more detailed analysis of Raman signal is required to fully quantify and identify corresponding peaks in order to completely understand changes in the biomolecular profile observed for the fixation with Yb^3+[Zn(II)MCpyzHA].

HeLa cells [4] = assay: NIR epifluorescence microscopy of HeLa cells (necrotic cell labelling, simultaneous staining and fixing); type: cell-based, Human; details: 150 μM complex and 3 μM propidium iodide together, UV light (377 nm) 5 minutes
Description: Cells were seeded in a 8-well Lab Tek Chamber coverglass (Nunc, Dutsher S.A., Brumath, France) at a density of 6×10^4 cells/well and cultured at 37° C. in 5% humidified CO2 atmosphere.
The continued incubation enabled the internalization of the complexes.
All of the previously mentioned incubated HeLa cells were then washed with fresh OPTI-MEM® media and were incubated with 3 μM propidium iodide for 5 minutes. Propidium iodide is a commercially available stain (emitting in the visible range) for necrotic cells, and was used to confirm cell necrosis.
i. 377 nm with 50 nm band-pass filter with 50 nm bandwidth for the excitation and 805 nm long-pass filter 805 nm or 996 nm band-pass filter with 70 nm bandwidth for YbIII emission in the NIR range.
ii. […] for the excitation and 805 nm long-pass filter 805 nm or 996 nm band-pass filter with 70 nm bandwidth for YbIII emission in the NIR range. […]

[5] = Photophysical properties of the metallacrowns in solid state and in aqueous solutions; type: physicochemical
[6] = Photostability stress tests; type: physicochemical; details: 150 μM in water and OPTI-MEM media, 5 hours of irradiation with 377 nm light
Description: Photostability stress tests of Yb^3+[Zn(II)MCpyzHA] (Yb λem=980 nm) and Nd^3+[Zn(II)MCpyzHA] (Nd λem=1064 nm) and the commercially available dye for necrotic cells (Propidium Iodide) were performed. The complexes (150 μM) or dye (50 μM) were dissolved in water and the complexes were also dissolved in OPTI-MEM® media. The MC solutions were exposed to 5 hours of UV radiation (377 nm). The propidium iodide solution was exposed to 5 hours of UV radiation (530 nm).

HeLa cells [7] = assay: NIR epifluorescence microscopy of HeLa cells (necrotic cell labelling, simultaneous staining and fixing); type: cell-based, Human; details: for Colocalization with propidium iodide: then 3 μM PI 5 minutes
[8] = 150 μM, 15 minutes, UV light (377 nm) 8 minutes, further 1 hour

τ (luminescence lifetime), D2O ([5]; 200 μM in D2O, room temperature, excitation at 355 nm): 81.3(1) μs | τ (luminescence lifetime), H2O ([5]; 200 μM in H2O, room temperature, excitation at 355 nm): 5.57(1) μs | q (number of coordinated water molecules) ([5]; calculated from lifetimes, estimated error ±0.2): 0 | τ (luminescence lifetime), Solid ([5]; solid state, room temperature, excitation at 355 nm): 45.6(3) μs | Photostability [6]: fully photostable
Structure (SMILES): O=C([N-][O-])c1cnccn1.O=C([N-][O-])c1cnccn1.O=C([N-][O-])c1cnccn1.O=C([N-][O-])c1cnccn1.O=C([N-][O-])c1cnccn1.O=C([N-][O-])c1cnccn1.O=C([N-][O-])c1cnccn1.O=C([N-][O-])c1cnccn1.O=C([N-][O-])c1cnccn1.O=C([N-][O-])c1cnccn1.O=C([N-][O-])c1cnccn1.O=C([N-][O-])c1cnccn1.O=C([N-][O-])c1cnccn1.O=C([N-][O-])c1cnccn1.O=C([N-][O-])c1cnccn1.O=C([N-][O-])c1cnccn1.O=S(=O)([O-])C(F)(F)F.O=S(=O)([O-])C(F)(F)F.O=S(=O)([O-])C(F)(F)F.[Yb+3].[Zn+2].[Zn+2].[Zn+2].[Zn+2].[Zn+2].[Zn+2].[Zn+2].[Zn+2].[Zn+2].[Zn+2].[Zn+2].[Zn+2].[Zn+2].[Zn+2].[Zn+2].[Zn+2].c1ccncc1.c1ccncc1.c1ccncc1.c1ccncc1.c1ccncc1.c1ccncc1.c1ccncc1.c1ccncc1 [Yb^3+[Zn(II)MCpyzHA]]
Intracellular location (confocal, visible ligand emission) (MSC stem cells): specifically located in nucleus as well as in cytoplasm | Function in MSC cells [1]: acting as an NIR dye and cell fixative | Cells remained alive (HeLa cells [2]; 45 μM): approximately 70% | Concentration from which the complex started to be significantly toxic (HeLa cells [2]): ≥ 45 µM | Biomolecular profile of fixed HeLa cells compared with PFA and methanol fixation (Raman) (HeLa cells [3]): very similar biomolecular profiles | Incubation time after which emission was observed in cells after UV illumination (HeLa cells [4]): 20 min | Selectivity of labelling for necrotic cells (HeLa cells [7]; 45 μM, 15 minutes, no UV light exposure (also 150 μM, 12 hours)): going exclusively in necrotic cells | Specificity of the dye for cell state (HeLa cells [7]; 150 μM complex and 3 μM propidium iodide together, UV light (377 nm) 5 minutes): specific for dead and apoptotic cells | NIR staining of fixed HeLa cancer cells (cell compartments) (HeLa cells [7]; [8]): operates as a NIR stain for the nucleus as well as for the cytoplasm | Shape and morphology of stained and fixed cells one month after the procedure (HeLa cells [7]; 150 μM, 15 minutes, UV light (377 nm) 8 minutes, further 1 hour, imaged one month later): maintained the same shape and morphology | Colocalization with propidium iodide (HeLa cells [7]; [8]): colocalize in the same cell compartments | Colocalization with propidium iodide (HeLa cells [7]; 150 μM, 12 hours, no UV light): colocalize in the same cell compartment | Toxicity to the HeLa cell line (HeLa cells [7]; 150 μM, incubation during 12 hours, no UV light exposure): toxic

Source: patent US10359430B2, “Selective near-infrared optical imaging of necrotic cells and simultaneous cell fixing and counter staining with metallacrown complexes” (THE REGENTS OF THE UNIVERSITY OF MICHIGAN, priority 2015, dated 2019)
